Data taken from US4962125A, “Novel substance KS-619-1, preparation process and pharmaceutical composition” (Kyowa Hakko Kogyo, Co., Ltd., priority 1984, dated 1990).

How the values were obtained:
[1] = system: rabbit mesenteric arteries; experiment: Inhibition of KCl-induced contraction of surface-perfused, extirpated mesenteric arteries; assay type: cell-based, White bastard rabbits
Procedure: (1) Preparation of surface-perfused, extirpated mesenteric arteries
White bastard rabbits (male, 2-3 kg) were incised along the abdominal median line. […] The strips were ligated with silk yarn at both ends, and the lower end was connected to a stationary rod, whereas the upper end was connected to a […] transducer (SB-1T, product of Nippon Koden Co., Ltd.). Thus, the strips were suspended under an initial tension of 1.5 g. The preparation was kept at 37°±1° C. by means of peristaltic pump (Harvard 1210), while a gas (95% O2 and 5% CO2) was introduced therein. The surface of the preparation was perfused with a Krebs-Henseleit solution whose composition in g/l was NaCl: 6.92, KCl: 0.35, MgSO4.7H2 O: 0.29, CaCl2 : 0.28, KH2 PO4 : 0.16, NaHCO3 : 2.1 and glucose: 2.0 at a flow rate of 10 ml/min. After the preparation was stabilized for 1 to 2 hours, it was used for the experiment. Potassium chloride as a blood vessel-contracting substance was injected into flow of the perfusion solution through a cannula provided just before the preparation so that potassium chloride can have the ultimate concentration of 20 mM. The resulting contraction reaction was recorded on a polygraph (RM-45, product of Nippon Koden Co. Ltd.) in equal scales through the tension transducer. KS-619-1 was dissolved in ethanol to a concentration of 20 mg/ml, and the solution was properly diluted with a nutrient liquor and then continuously perfused from 10 minutes before the application of the contracting substance till the end of contraction reaction.
^(a) Inhibition percentage of contraction was calculated according to […]

[2] = Acute toxicity (LD50) in mice; conditions: mouse, in vivo
Procedure: The acute toxicity (LD50) of KS-619-1 in mice is more than 300 mg/kg·p.o. and more than 100 mg/kg·i.p.

Solubility = assay type: physicochemical

SMILES: CC(=O)Cc1cc2c(c(O)c1C(=O)O)-c1cc3c(c(O)c1CC2)C(=O)c1c(O)cc(O)cc1C3=O [KS-619-1]
- inhibition at 0.3 µg/mL ([1]; Oryctolagus cuniculus, KS-619-1 0.3 μg/ml (ultimate concentration), contracting substance potassium chloride 20 mM, read-out: Inhibition percentage of contraction): 33%
- inhibition at 1 µg/mL ([1]; Oryctolagus cuniculus, KS-619-1 1.0 μg/ml (ultimate concentration), contracting substance potassium chloride 20 mM, read-out: Inhibition percentage of contraction): 67%
- inhibition of contraction of rabbit mesenteric arteries (in words) ([1]; potassium chloride 20 mM, 0.3 and 1.0 μg/ml): inhibited the contraction of rabbit mesenteric arteries, depending on the concentration
- LD50 ([2]; ip): > 100 mg/kg
- LD50 ([2]; po): > 300 mg/kg
- Solubility (Solubility; in acetic acid): readily soluble
- Solubility (Solubility; in chloroform and water): sparingly soluble
- Solubility (Solubility; in methanol, ethanol, acetone, ethyl acetate and butanol): soluble
